Data: patent US8637058B2, “Compositions based on cupric salts, cupric salts and their use for controlling phytopathogens” (priority 2001, dated 2014)

Test system: isolated portion of the phytopathogen with a reduced sensitivity (Plasmopara viticola)
Assay: Control of Plasmopara viticola on grapes, preventive leaf application (greenhouse test), isolate with reduced sensitivity
Assay type: in vivo
Conditions: fungicide alone at 0.05 ppm, scale 100 to 0
Protocol: Efficacy of Compound Nr. 1 Mixed with Another Fungicidal Compound in the Control of Plasmopara viticola on Grapes in Preventive Leaf Application (Greenhouse Test) Table 3.
Leaves of cultivar Dolcetto grape vines, cultivated in vases, in a conditioned environment (20±1° C., 70% relative humidity) are treated by spraying both sides of the leaves with compound Nr. 1 mixed with another fungicide dispersed in a hydroacetone solution at 10% by volume of acetone containing 0.3% of tween 20.
After remaining 24 hours in a conditioned environment, the plants are infected on the lower side with an aqueous suspension of spores of Plasmopara viticola (200,000 spores per cm^3).
The plants are kept in a humidity saturated environment, at 21° C., for the incubation period of the fungus and, at the end of this period (7 days), the fungicidal activity is evaluated according to a percentage evaluation scale from 100 (healthy plant) to 0 (completely infected plant).
From the data indicated in Table 3, the synergic effect of the mixtures, consisting of compound Nr. […]
When the fungicidal activity experimentally evaluated is greater than the value of E, this activity should be considered as a synergic effect.

In the case of `COCC(=O)N(c1c(C)cccc1C)C(C)C(=O)OC` (stereo not shown) [Metalaxyl, metalaxyl], the “Activity (y)” value is reported as 12.
